Measurements taken from patent US11964973B2 (priority 2019, dated 2024).
pEC50: −log10 of the molar value. Like-named read-outs stand apart in the source and are kept apart here. One block for each compound: values may come before it.

Tested on: human venous whole blood, CD8 positive population (pERK)
Assay: DGK human whole blood pERK assay
Assay type: cell-based
Procedure: Assay 11: DGK Human Whole Blood pERK Assay
Human whole blood ERK phosphorylation assay was performed with human venous whole blood obtained from healthy donors (drawn with Heparin as anti-coagulant). […] Heparinized human whole blood was added to the compound plate at 9 μL per well and incubated for one hour at 37° C. in a humidified 95%, air/5% CO2 incubator. After one hour of compound incubation, 1 μL of human anti-CD3 antibody (in-house) in the presence of cross-linking antibody goat anti-mouse IgG (4 μg/mL) was added to the well at 1 μg/mL final concentration for stimulation of pathway and additionally incubated for 15 minutes at 37° C. […] Samples analyzed using the Intellicyt® iQue Screener PLUS. The pERK activation was quantitated by the percentage of pERK positive population within CD8 positive population.

[1] = human whole blood pERK, read-out: DGK HWB
[2] = read-out: DGK HWB, human whole blood pERK
[3] = Homo sapiens, CD8 positive, read-out: DGK HWB, human whole blood pERK

Structure (SMILES): CCO[C@H]1CN(c2cc(=O)n(C)c3ccc(C#N)nc23)CC[C@@H]1Oc1cccc(C(F)(F)F)n1 (relative stereo) [Example 364, trans-8-(3-Ethoxy-4-((6-(trifluoromethyl)pyridin-2-yl)oxy)piperidin-1-yl)-5-methyl-6-oxo-5,6-dihydro-1,5-naphthyridine-2-carbonitrile]
pEC50 [1]: 4.70

Structure (SMILES): Cn1c(=O)cc(N2CC[C@@H](Oc3cccc(C(F)(F)F)c3)[C@H](OCC3CC3)C2)c2nc(C#N)ccc21 [Example 388, 8-((3R,4R)-3-(cyclopropylmethoxy)-4-(3-(trifluoromethyl)phenoxy)piperidin-1-yl)-5-methyl-6-oxo-5,6-dihydro-1,5-naphthyridine-2-carbonitrile]
pEC50 (human whole blood, CD8 positive population, anti-CD3 stimulation, top concentration 20 μM, read-out: DGK HWB (human whole blood pERK)): 4.70

Structure (SMILES): CC1CN(c2c(C#N)c(=O)n(C)c3ccc(C#N)nc23)CCC1N(C)C1CCC(F)(F)CC1 (single isomer, unassigned) [Example 330]
pEC50 [1]: 4.70

Structure (SMILES): CCO[C@H]1CN(c2cc(=O)n(C)c3ccc(C#N)nc23)CC[C@@H]1Oc1ccc(C(F)(F)F)cc1 [Example 343, 8-((3S,4S)-3-ethoxy-4-(4-(trifluoromethyl)phenoxy)piperidin-1-yl)-5-methyl-6-oxo-5,6-dihydro-1,5-naphthyridine-2-carbonitrile]
pEC50 [1]: 6.49

Structure (SMILES): CCO[C@H]1CN(c2cc(=O)n(C)c3ccc(C#N)nc23)CC[C@@H]1Oc1ccccc1 (relative stereo) [Example 341, trans-8-(3-Ethoxy-4-phenoxypiperidin-1-yl)-5-methyl-6-oxo-5,6-dihydro-1,5-naphthyridine-2-carbonitrile]
pEC50 (Homo sapiens, CD8 positive, human whole blood pERK, read-out: DGK HWB): 6.23

Structure (SMILES): CC[C@@H]1CN(c2nc(=O)n(C)c3ccc(Cl)nc23)[C@@H](C)C[C@H]1Oc1ccc(OC(C)C)cn1 [Example 300, 6-chloro-4-((2S,4R,5R)-5-ethyl-4-((5-isopropoxypyridin-2-yl)oxy)-2-methylpiperidin-1-yl)-1-methylpyrido[3,2-d]pyrimidin-2(1H)-one]
pEC50 [3]: 5.08

Further lines, results first:

pEC50 [2]: 5.33
Structure (SMILES): C[C@@H]1CN(c2nc(=O)n(C)c3ccc(C#N)nc23)[C@H](C)CC1Oc1cccc(C(F)(F)F)c1 (stereo partly drawn) [Example 256, 4-((2R,5R)-2,5-dimethyl-4-(3-(trifluoromethyl)phenoxy)piperidin-1-yl)-1-methyl-2-oxo-1,2-dihydropyrido[3,2-d]pyrimidine-6-carbonitrile]

pEC50 [3]: 6.11
Structure (SMILES): CC[C@@H]1CN(c2cc(=O)n(C)c3ccc(C#N)nc23)[C@@H](C)C[C@@H]1Oc1ccc(OC(C)C)cn1 [Example 299, 8-((2S,4S,5R)-5-ethyl-4-((5-isopropoxypyridin-2-yl)oxy)-2-methylpiperidin-1-yl)-5-methyl-6-oxo-5,6-dihydro-1,5-naphthyridine-2-carbonitrile]

pEC50 (Homo sapiens, CD8 positive, read-out: DGK HWB (human whole blood pERK), human whole blood, CD8 positive population, anti-CD3 stimulation, top concentration 20 μM): 4.77
Structure (SMILES): Cn1c(=O)cc(N2CC[C@@H](Oc3cccc(C(F)(F)F)c3)[C@H](OCCN3CCOCC3)C2)c2nc(C#N)ccc21 [Example 391, 5-methyl-8-((3R,4R)-3-(2-morpholinoethoxy)-4-(3-(trifluoromethyl)phenoxy)piperidin-1-yl)-6-oxo-5,6-dihydro-1,5-naphthyridine-2-carbonitrile]

pEC50 [2]: 6.15
Structure (SMILES): CCO[C@H]1CN(c2cc(=O)n(C)c3ccc(C#N)nc23)CC[C@@H]1Oc1ccnc(C(F)(F)F)c1 [Example 360, 8-((3S,4S)-3-ethoxy-4-((2-(trifluoromethyl)pyridin-4-yl)oxy)piperidin-1-yl)-5-methyl-6-oxo-5,6-dihydro-1,5-naphthyridine-2-carbonitrile]

pEC50 [2]: 4.80
Structure (SMILES): C[C@@H]1CN(c2cc(=O)n(C)c3ccc(C#N)nc23)[C@@H](C)CC1N(C)Cc1ccc(F)cc1 (single isomer, unassigned) [Example 332]

pEC50 [2]: 5.15
Structure (SMILES): CCO[C@H]1CN(c2cc(=O)n(C)c3ccc(C#N)nc23)CC[C@@H]1Oc1ccc(Cl)c(F)c1 [Example 358, 8-((3S,4S)-4-(4-chloro-3-fluorophenoxy)-3-ethoxypiperidin-1-yl)-5-methyl-6-oxo-5,6-dihydro-1,5-naphthyridine-2-carbonitrile]
